Test system: subjects with AK on the face or scalp
Assay: Phase 2a study KX01-AK-002: local skin reactions (grade 0 not present to 4 worst) and adverse events, 0.5 mg KX-01 on 25 cm^2
Type: in vivo, human
From the text: An ongoing Phase 2a, open-label, multicenter, activity and safety study of KX-01 administered topically in subjects with AK on the face or scalp is described herein. […] Secondary objectives are to assess the activity of KX-01 administered topically during Days 1-57 based on reduction of AK lesion counts from baseline, assess the safety and tolerability and pharmacokinetics, and contrast the dose regimens (5-day treatment with 3-day treatment) in terms of activity and safety in subjects with AK on the face or scalp. This uncontrolled, nonrandomized trial is being conducted at 16 investigational sites in the United States. Enrollment is sequential for 2 cohorts of approximately 80 subjects each. Enrollment is closed for Cohort 1 and ongoing for Cohort 2. The two treatment cohorts are summarized below: • Cohort 1: 0.5 mg KX-01 administered topically to a contiguous treatment area of 25 cm^2 with 4-8 clinically typical AK lesions for 5 consecutive days • Cohort 2: 0.5 mg KX-01 administered topically to a contiguous treatment area of 25 cm^2 with 4-8 clinically typical AK lesions for 3 consecutive days
0.5 mg KX-01 is administered topically to an area of 25 cm^2 on the face or scalp by site staff on treatment days. […] AK lesion counts are recorded at baseline, days 8, 15, 29, and 57. […] Standardized photography of treatment area is performed at baseline, day 8 and day 57. Plasma samples are being collected at preplanned time points on days 1 and 5 for Cohort 1, and on days 1 and 3 for Cohort 2.
Absence or presence of hyperpigmentation, hypopigmentation and scarring are also assessed. Application site reactions not classified as LSRs are reported as AEs. […] LSRs and AEs are reported separately. All LSRs, pigmentation, and scarring in the treatment area will be followed to resolution or stabilization.
The range of possible composite scores is 0-24.
The Phase 2a trial described in Example 2a was completed with 84 eligible subjects enrolled in each of two cohorts: one cohort was subjected to the treatment for 5 consecutive days, and the other cohort was subjected to the treatment for 3 consecutive days. The results are described below and in FIG. 5.

[1] = Cohort 1 (5-day), 67 subjects with day 57 visit

## O=C(Cc1ccc(-c2ccc(OCCN3CCOCC3)cc2)cn1)NCc1ccccc1 [KX-01]
3-day, N = 84
  Crusting maximal post-baseline grade 0, subjects (%): 58 (69%)
  Crusting maximal post-baseline grade 1, subjects (%): 16 (19%)
  Crusting maximal post-baseline grade 2, subjects (%): 9 (11%)
  Crusting maximal post-baseline grade 3, subjects (%): 1 (1%)
  Crusting maximal post-baseline grade 4, subjects (%): 0 (0%)
  Erosion/Ulceration maximal post-baseline grade 0, subjects (%): 79 (94%)
  Erosion/Ulceration maximal post-baseline grade 1, subjects (%): 5 (6%)
  Erosion/Ulceration maximal post-baseline grade 2, subjects (%): 0 (0%)
  Erosion/Ulceration maximal post-baseline grade 3, subjects (%): 0 (0%)
  Erosion/Ulceration maximal post-baseline grade 4, subjects (%): 0 (0%)
  Erythema maximal post-baseline grade 0, subjects (%): 30 (36%)
  Erythema maximal post-baseline grade 1, subjects (%): 22 (26%)
  Erythema maximal post-baseline grade 2, subjects (%): 26 (31%)
  Erythema maximal post-baseline grade 3, subjects (%): 6 (7%)
  Erythema maximal post-baseline grade 4, subjects (%): 0 (0%)
  Flaking/Scaling maximal post-baseline grade 0, subjects (%): 39 (46%)
  Flaking/Scaling maximal post-baseline grade 1, subjects (%): 18 (21%)
  Flaking/Scaling maximal post-baseline grade 2, subjects (%): 19 (23%)
  Flaking/Scaling maximal post-baseline grade 3, subjects (%): 8 (10%)
  Flaking/Scaling maximal post-baseline grade 4, subjects (%): 0 (0%)
  Swelling maximal post-baseline grade 0, subjects (%): 76 (90%)
  Swelling maximal post-baseline grade 1, subjects (%): 8 (10%)
  Swelling maximal post-baseline grade 2, subjects (%): 0 (0%)
  Swelling maximal post-baseline grade 3, subjects (%): 0 (0%)
  Swelling maximal post-baseline grade 4, subjects (%): 0 (0%)
  Vesiculation/Pustulation maximal post-baseline grade 0, subjects (%): 83 (99%)
  Vesiculation/Pustulation maximal post-baseline grade 1, subjects (%): 0 (0%)
  Vesiculation/Pustulation maximal post-baseline grade 2, subjects (%): 1 (1%)
  Vesiculation/Pustulation maximal post-baseline grade 3, subjects (%): 0 (0%)
  Vesiculation/Pustulation maximal post-baseline grade 4, subjects (%): 0 (0%)
5-day treatment, cross-study
  Local safety profile compared to Picato: more benign local safety profile
5-day, N = 84
  Crusting maximal post-baseline grade 0, subjects (%): 51 (61%)
  Crusting maximal post-baseline grade 1, subjects (%): 25 (30%)
  Crusting maximal post-baseline grade 2, subjects (%): 8 (10%)
  Crusting maximal post-baseline grade 3, subjects (%): 0 (0%)
  Crusting maximal post-baseline grade 4, subjects (%): 0 (0%)
  Erosion/Ulceration maximal post-baseline grade 0, subjects (%): 71 (85%)
  Erosion/Ulceration maximal post-baseline grade 1, subjects (%): 12 (14%)
  Erosion/Ulceration maximal post-baseline grade 2, subjects (%): 1 (1%)
  Erosion/Ulceration maximal post-baseline grade 3, subjects (%): 0 (0%)
  Erosion/Ulceration maximal post-baseline grade 4, subjects (%): 0 (0%)
  Erythema maximal post-baseline grade 0, subjects (%): 15 (18%)
  Erythema maximal post-baseline grade 1, subjects (%): 16 (19%)
  Erythema maximal post-baseline grade 2, subjects (%): 35 (42%)
  Erythema maximal post-baseline grade 3, subjects (%): 17 (20%)
  Erythema maximal post-baseline grade 4, subjects (%): 1 (1%)
  Flaking/Scaling maximal post-baseline grade 0, subjects (%): 33 (39%)
  Flaking/Scaling maximal post-baseline grade 1, subjects (%): 10 (12%)
  Flaking/Scaling maximal post-baseline grade 2, subjects (%): 24 (29%)
  Flaking/Scaling maximal post-baseline grade 3, subjects (%): 16 (19%)
  Flaking/Scaling maximal post-baseline grade 4, subjects (%): 1 (1%)
  Swelling maximal post-baseline grade 0, subjects (%): 66 (79%)
  Swelling maximal post-baseline grade 1, subjects (%): 16 (19%)
  Swelling maximal post-baseline grade 2, subjects (%): 1 (1%)
  Swelling maximal post-baseline grade 3, subjects (%): 1 (1%)
  Swelling maximal post-baseline grade 4, subjects (%): 0 (0%)
  Vesiculation/Pustulation maximal post-baseline grade 0, subjects (%): 80 (95%)
  Vesiculation/Pustulation maximal post-baseline grade 1, subjects (%): 4 (5%)
  Vesiculation/Pustulation maximal post-baseline grade 2, subjects (%): 0 (0%)
  Vesiculation/Pustulation maximal post-baseline grade 3, subjects (%): 0 (0%)
  Vesiculation/Pustulation maximal post-baseline grade 4, subjects (%): 0 (0%)
5-day, interim N = 67
  Crusting maximal post-baseline grade 0, subjects (%): 41 (61%)
  Crusting maximal post-baseline grade 1, subjects (%): 20 (30%)
  Crusting maximal post-baseline grade 2, subjects (%): 6 (9%)
  Crusting maximal post-baseline grade 3, subjects (%): 0 (0%)
  Crusting maximal post-baseline grade 4, subjects (%): 0 (0%)
  Erosion/Ulceration maximal post-baseline grade 0, subjects (%): 57 (85%)
  Erosion/Ulceration maximal post-baseline grade 1, subjects (%): 9 (13%)
  Erosion/Ulceration maximal post-baseline grade 2, subjects (%): 1 (1%)
  Erosion/Ulceration maximal post-baseline grade 3, subjects (%): 0 (0%)
  Erosion/Ulceration maximal post-baseline grade 4, subjects (%): 0 (0%)
  Erythema maximal post-baseline grade 0, subjects (%): 7 (10%)
  Erythema maximal post-baseline grade 1, subjects (%): 16 (24%)
  Erythema maximal post-baseline grade 2, subjects (%): 32 (48%)
  Erythema maximal post-baseline grade 3, subjects (%): 12 (18%)
  Erythema maximal post-baseline grade 4, subjects (%): 0 (0%)
  Flaking/Scaling maximal post-baseline grade 0, subjects (%): 20 (30%)
  Flaking/Scaling maximal post-baseline grade 1, subjects (%): 14 (21%)
  Flaking/Scaling maximal post-baseline grade 2, subjects (%): 20 (30%)
  Flaking/Scaling maximal post-baseline grade 3, subjects (%): 13 (19%)
  Flaking/Scaling maximal post-baseline grade 4, subjects (%): 0 (0%)
  Swelling maximal post-baseline grade 0, subjects (%): 53 (79%)
  Swelling maximal post-baseline grade 1, subjects (%): 12 (18%)
  Swelling maximal post-baseline grade 2, subjects (%): 1 (1%)
  Swelling maximal post-baseline grade 3, subjects (%): 1 (1%)
  Swelling maximal post-baseline grade 4, subjects (%): 0 (0%)
  Vesiculation/Pustulation maximal post-baseline grade 0, subjects (%): 64 (96%)
  Vesiculation/Pustulation maximal post-baseline grade 1, subjects (%): 3 (4%)
  Vesiculation/Pustulation maximal post-baseline grade 2, subjects (%): 0 (0%)
  Vesiculation/Pustulation maximal post-baseline grade 3, subjects (%): 0 (0%)
  Vesiculation/Pustulation maximal post-baseline grade 4, subjects (%): 0 (0%)
Cohort 1 (5-day)
  Day from which LSRs were generally observable: 3 days
[1]
  Subjects with erosion/ulceration: 9
  Subjects with no LSR in the treatment area throughout the study: 7
  Subjects with vesiculation/pustulation: Three
Cohort 1 (5-day), N=82
  Number of TEAEs considered related to KX-01: 12
  Subjects reporting TEAEs considered related to KX-01: Seven
  Total number of TEAEs: 54
Cohort 1 (5-day), N=82, mild tenderness, stinging, pruritus
  Cases of application site reaction: 6
Cohort 1 (5-day), of 60 subjects with LSRs
  Subjects whose LSRs had not returned to baseline at day 57: 8
Cohort 1 (5-day), in 2 subjects, none considered related to study drug
  Number of SAEs: 3
Day 1, Cohort 1 (5-day)
  Crusting grade 0, n/N subjects: 62/67
  Crusting grade 1, n/N subjects: 5/67
  Crusting grade 2, n/N subjects: 0
  Crusting grade 3, n/N subjects: 0
  Crusting grade 4, n/N subjects: 0
  Erosion/Ulceration grade 0, n/N subjects: 67/67
  Erosion/Ulceration grade 1, n/N subjects: 0
  Erosion/Ulceration grade 2, n/N subjects: 0
  Erosion/Ulceration grade 3, n/N subjects: 0
  Erosion/Ulceration grade 4, n/N subjects: 0
  Erythema grade 0, n/N subjects: 56/67
  Erythema grade 1, n/N subjects: 11/67
  Erythema grade 2, n/N subjects: 0
  Erythema grade 3, n/N subjects: 0
  Erythema grade 4, n/N subjects: 0
  Flaking/Scaling grade 0, n/N subjects: 55/67
  Flaking/Scaling grade 1, n/N subjects: 12/67
  Flaking/Scaling grade 2, n/N subjects: 0
  Flaking/Scaling grade 3, n/N subjects: 0
  Flaking/Scaling grade 4, n/N subjects: 0
  Swelling grade 0, n/N subjects: 67/67
  Swelling grade 1, n/N subjects: 0
  Swelling grade 2, n/N subjects: 0
  Swelling grade 3, n/N subjects: 0
  Swelling grade 4, n/N subjects: 0
  Vesiculation/Pustulation grade 0, n/N subjects: 67/67
  Vesiculation/Pustulation grade 1, n/N subjects: 0
  Vesiculation/Pustulation grade 2, n/N subjects: 0
  Vesiculation/Pustulation grade 3, n/N subjects: 0
  Vesiculation/Pustulation grade 4, n/N subjects: 0
Day 2, Cohort 1 (5-day)
  Crusting grade 0, n/N subjects: 64/67
  Crusting grade 1, n/N subjects: 2/67
  Crusting grade 2, n/N subjects: 1/67
  Crusting grade 3, n/N subjects: 0
  Crusting grade 4, n/N subjects: 0
  Erosion/Ulceration grade 0, n/N subjects: 67/67
  Erosion/Ulceration grade 1, n/N subjects: 0
  Erosion/Ulceration grade 2, n/N subjects: 0
  Erosion/Ulceration grade 3, n/N subjects: 0
  Erosion/Ulceration grade 4, n/N subjects: 0
  Erythema grade 0, n/N subjects: 44/67
  Erythema grade 1, n/N subjects: 20/67
  Erythema grade 2, n/N subjects: 3/67
  Erythema grade 3, n/N subjects: 0
  Erythema grade 4, n/N subjects: 0
  Flaking/Scaling grade 0, n/N subjects: 51/67
  Flaking/Scaling grade 1, n/N subjects: 15/67
  Flaking/Scaling grade 2, n/N subjects: 1/67
  Flaking/Scaling grade 3, n/N subjects: 0
  Flaking/Scaling grade 4, n/N subjects: 0
  Swelling grade 0, n/N subjects: 67/67
  Swelling grade 1, n/N subjects: 0
  Swelling grade 2, n/N subjects: 0
  Swelling grade 3, n/N subjects: 0
  Swelling grade 4, n/N subjects: 0
  Vesiculation/Pustulation grade 0, n/N subjects: 67/67
  Vesiculation/Pustulation grade 1, n/N subjects: 0
  Vesiculation/Pustulation grade 2, n/N subjects: 0
  Vesiculation/Pustulation grade 3, n/N subjects: 0
  Vesiculation/Pustulation grade 4, n/N subjects: 0
Day 3, Cohort 1 (5-day)
  Crusting grade 0, n/N subjects: 63/67
  Crusting grade 1, n/N subjects: 3/67
  Crusting grade 2, n/N subjects: 1/67
  Crusting grade 3, n/N subjects: 0
  Crusting grade 4, n/N subjects: 0
  Erosion/Ulceration grade 0, n/N subjects: 66/67
  Erosion/Ulceration grade 1, n/N subjects: 1/67
  Erosion/Ulceration grade 2, n/N subjects: 0
  Erosion/Ulceration grade 3, n/N subjects: 0
  Erosion/Ulceration grade 4, n/N subjects: 0
  Erythema grade 0, n/N subjects: 32/67
  Erythema grade 1, n/N subjects: 24/67
  Erythema grade 2, n/N subjects: 10/67
  Erythema grade 3, n/N subjects: 1/67
  Erythema grade 4, n/N subjects: 0
  Flaking/Scaling grade 0, n/N subjects: 46/67
  Flaking/Scaling grade 1, n/N subjects: 14/67
  Flaking/Scaling grade 2, n/N subjects: 5/67
  Flaking/Scaling grade 3, n/N subjects: 2/67
  Flaking/Scaling grade 4, n/N subjects: 0
  Swelling grade 0, n/N subjects: 67/67
  Swelling grade 1, n/N subjects: 0
  Swelling grade 2, n/N subjects: 0
  Swelling grade 3, n/N subjects: 0
  Swelling grade 4, n/N subjects: 0
